Assay results as given in patent US7470429B2, “Methods and compositions for increasing the target-specific toxicity of a chemotherapy drug” (priority 1998, dated 2008).

Columns and labels:
[1] = test system: colorectal cancer; experiment: Tumor therapy of colorectal cancer patient with bsMAb, DTPA-enzyme conjugates and CPT-11; type: in vivo, human; settings: then standard dose CPT-11
Procedure: A patient with colorectal cancer is given an injection of the bsMAb comprised of an […]-14 cross-linked with an anti-DTPA Fab' fragment, prepared according to Example 3. After 48 h to allow for maximum accretion in tumors, an amount of galactose-[…], prepared according to Example 4, sufficient to clear nearly all non-target-bound MN-14-IgG ×734-Fab' from the circulation is administered. This amount is between 5 and 15 times the amount of primary bsMAb remaining in circulation at the time-point specified. Three hours after administration of the galactose-[…], a tumor-saturating amount of a mixture of the DTPA-CE and […] conjugates is given, and allowed to clear circulation and normal tissues. […] A patient with colorectal cancer is given an injection of the bsMAb as in Example 6. After 48 h to allow for maximum accretion in tumors, an excess amount of same mixture of the DTPA-CE and DTPA-glucuronidase conjugates as in Example 6 is given. Three hours later an amount of galactose-[…] sufficient to clear nearly all non-target-bound […]-IgG ×734-Fab'-DTPA-enzymes from the circulation is administered. This amount is between 5 and 15 times the amount of primary bsMAb complexes remaining in circulation at the time-point specified.

[2] = target: T1, human beta-D-glucuronidase (Homo sapiens, UniProt P08236); settings: cited from earlier work
T1 sequence (P08236 23-651): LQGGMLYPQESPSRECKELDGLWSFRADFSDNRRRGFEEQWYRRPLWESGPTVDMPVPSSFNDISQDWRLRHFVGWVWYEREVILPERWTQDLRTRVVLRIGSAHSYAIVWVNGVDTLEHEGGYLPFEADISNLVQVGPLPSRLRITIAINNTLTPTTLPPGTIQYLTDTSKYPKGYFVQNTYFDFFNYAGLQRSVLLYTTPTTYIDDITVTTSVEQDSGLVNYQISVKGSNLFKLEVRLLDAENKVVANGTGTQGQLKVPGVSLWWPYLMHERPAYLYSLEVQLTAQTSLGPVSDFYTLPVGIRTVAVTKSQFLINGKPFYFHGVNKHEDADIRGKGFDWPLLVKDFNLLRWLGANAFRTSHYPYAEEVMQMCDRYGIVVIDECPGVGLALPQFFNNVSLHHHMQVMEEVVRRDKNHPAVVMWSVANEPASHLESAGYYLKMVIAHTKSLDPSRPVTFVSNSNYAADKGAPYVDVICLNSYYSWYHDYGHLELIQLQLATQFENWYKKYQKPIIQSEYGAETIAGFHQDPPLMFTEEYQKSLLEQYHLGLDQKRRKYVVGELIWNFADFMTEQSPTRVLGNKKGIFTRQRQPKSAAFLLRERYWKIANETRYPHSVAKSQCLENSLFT

[3] = pretreatment of rats; cited from earlier work
[4] = test system: uridine diphosphate glucuronosyl transferase (UDP-GT); settings: pretreatment of rats; cited from earlier work
[5] = test system: lymphoma; experiment: Therapy of lymphoma in a human patient after pretargeting of enzyme conjugates; type: in vivo; settings: 10 mg i.v. after pretargeted Fab′-glucuronidase and esterase conjugates; compared to 10 mg epirubicin prior to targeting
Procedure: A human patient suffering from lymphoma is infused intravenously with a sterile, pyrogen-free PBS solution containing 5 mg each of the 1-13 1-labeled anti-lymphoma Fab′-glucuronidase and esterase conjugates prepared according to Example 1 hereof.
The patient is then infused intravenously with a sterile, pyrogen-free PBS solution containing 10 mg of epirubicin methyl ester.

**Q.** What does the source list for CCc1c2c(nc3ccc(OC(=O)N4CCC(N5CCCCC5)CC4)cc13)-c1cc3c(c(=O)n1C2)COC(=O)[C@]3(O)CC [CPT-11, irinotecan]?
**A.** effect on tumors ([1]; Example 6: bsMAb, galactose-W12 clearing, then DTPA-enzyme conjugates): destroying the tumors; effect on tumors ([1]; Example 7: bsMAb, DTPA-enzyme conjugates, then galactose-W12 clearing): destroying said tumors

**Q.** Which “substrate for human beta-D-glucuronidase” value [2] does the source give for COc1cccc2c1C(=O)c1c(O)c3c(c(O)c1C2=O)C[C@@](O)(C(=O)CO)C[C@@H]3O[C@H]1C[C@H](N)[C@@H](O)[C@H](C)O1 [epirubicin] here?
**A.** substrate for human beta-D-glucuronidase

**Q.** With CCCC(CCC)C(=O)O [valproic acid] as the molecule, how does the “AUC for SN-38 from subsequently-administered CPT-11” value [3] read?
**A.** 270%

**Q.** What about the “formation of SN-38G” value [4] of the same molecule?
**A.** inhibited the formation of SN-38G

**Q.** With epirubicin methyl ester as the molecule, how does the “reduction in the lymphoma by radioimmunodetection” value [5] read?
**A.** significant reduction in the lymphoma
